Source: BindingDB's records for doi:10.1124/mol.61.2.415 (University of Ferrara, 2002)
Where “and” joins values, the source holds several entries; their conditions need not be identical. Identical values can stand only once.

Molecular target: T1, Adenosine receptor A3 (Homo sapiens, UniProt P0DMS8)
T1 sequence (P0DMS8 whole entry): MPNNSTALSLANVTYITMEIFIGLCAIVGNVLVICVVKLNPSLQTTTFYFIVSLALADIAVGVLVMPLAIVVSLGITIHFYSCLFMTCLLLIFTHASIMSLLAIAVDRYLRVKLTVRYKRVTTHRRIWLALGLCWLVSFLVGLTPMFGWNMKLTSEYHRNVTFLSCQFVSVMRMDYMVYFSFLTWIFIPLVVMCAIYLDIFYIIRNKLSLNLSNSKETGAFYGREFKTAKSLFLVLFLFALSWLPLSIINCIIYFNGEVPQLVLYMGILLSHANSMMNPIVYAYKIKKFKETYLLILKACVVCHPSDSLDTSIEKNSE

Compound | Ki
Nc1nc2ccc(Cl)cc2c2nc(-c3ccco3)nn12 | 122 nM
Nc1nc2c(cnn2CCc2ccccc2)c2nc(-c3ccco3)nn12 | > 10000 nM
CCCCn1cc2c(nc(NC(=O)Nc3ccccc3)n3nc(-c4ccco4)nc23)n1 | 1.4 nM and 0.93 nM
CCCCC#Cc1nc(N)c2ncn([C@@H]3O[C@H](C(=O)NCC)[C@H](O)C3O)c2n1 (stereo partly drawn) [(2S,3R,5R)-5-[6-amino-2-(hex-1-yn-1-yl)-9H-purin-9-yl]-N-ethyl-3,4-dihydroxyoxolane-2-carboxamide] | 750 nM and 740 nM

The remaining lines, values ahead:

Ki | Compound
1.7 nM and 1.5 nM | Cn1cc2c(nc(NC(=O)Nc3ccccc3)n3nc(-c4ccco4)nc23)n1
1.2 nM | CCn1cc2c(nc(NC(=O)Nc3ccccc3)n3nc(-c4ccco4)nc23)n1
1 nM and 0.53 nM | CCCn1cc2c(nc(NC(=O)Nc3ccccc3)n3nc(-c4ccco4)nc23)n1 [MRE 3055F20]
